From US8912184B1, “Therapeutic and diagnostic methods” (Alzheimer's Institute of America, Inc., priority 2010, dated 2014)

Key:
HCT116 xenograft tumors [1] = experiment: HCT116 human colon carcinoma murine xenograft, tumor growth/regression; format: in vivo, nu/nu mice
Description: (§1) Exemplary Compound A was tested for its ability to deplete NAD levels and promote tumor regression in an HCT116 (i.e., a Naprt-proficient cancer) murine xenograft model. Three million HCT116 human colon carcinoma cells were injected subcutaneously into nu/nu mice to form tumors. Dosing was started ten days later when median tumor volume was >100 mm^3.
Exemplary Compound A was administered orally to HCT116 tumor-bearing xenograft mice once (arrow) at the maximum tolerated dose of 75 mg/kg with or without simultaneous delivery of NA by Alzet pump (470 mg/kg/day for three days) (FIG. 8(b)).
The effect of weekly administration of Exemplary Compound A on tumor growth was examined in murine HCT116 xenograft models (FIG. 8(c)). HCT116 tumor-bearing xenograft mice were orally dosed with 75 mg/kg Exemplary Compound A weekly for three cycles (arrows), resulting in a maximal tumor response of 10% regression on day 18.
The effect of daily administration of Exemplary Compound A on tumor growth was examined in murine HCT116 xenograft models (FIG. 8(d)). HCT116 tumor-bearing xenograft mice were orally dosed with 10 mg/kg Exemplary Compound A daily for 21 days (black bar), resulting in a maximal tumor response of 32% regression on day 11.

HCT116 xenograft tumors [2] = experiment: NAD levels in tumor lysates of HCT116 xenograft mice; format: in vivo; conditions: single oral dose on day 0, after two days
Description: as §1
Exemplary Compound A was administered orally once on day 0 (arrow) to HCT116 tumor-bearing xenograft mice and NAD levels were determined for tumor lysates every other day for 8 days.

[3] = system: MIAPaCa-2 xenograft tumors; experiment: MIAPaCa-2 human pancreatic carcinoma murine xenograft, tumor growth and survival; format: in vivo, mice; conditions: for animals having tumor volumes >1500 mm3 at end of study: Day 40
Description: Exemplary Compound A was tested for its ability to suppress tumor growth, and promote survival in MIAPaCa-2 human pancreatic carcinoma (i.e., a Naprt-deficient cancer) murine xenograft models (FIG. 9). In these experiments, MIAPaCa-2 tumor-bearing mice with a median tumor volume of 202 mm^3 were orally dosed on days 1, 10 and 19 with either vehicle, 75 mg/kg Exemplary Compound A or 200 mg/kg Exemplary Compound A in combination with 400 mg/kg NA, or were orally dosed daily with 400 mg/kg NA for 21 days. See key below FIG. 9(b). NA was always administered one hour prior to dosing with Exemplary Compound A or vehicle.

HCT116 cells [4] = experiment: 72 Hour HCT116 Cytotoxicity Assay (CellTiter-Glo); format: cell-based; conditions: Homo sapiens, HCT-116, 72 h, HCT116 cells, 72 h, read-out: IC50 cytotoxicity
Description: HCT116 cells were seeded in 96 well plates (Greiner Bio-One, Monroe, N.C.) and allowed to settle overnight. Test compound dissolved in dimethyl sulfoxide (DMSO) was added and drug incubation proceeded for 72 hours. […] After 72 hour, 50 μL of CellTiter-Glo Luminescent Cell Viability Assay reagent (Promega Corporation, Madison, Wis.) was added to cells in 200 μL of cellular media. After a proscribed incubation period, luminescence was measured using a TopCount NXT plate reader (PerkinElmer, Waltham, Mass.).

[5] = Maximum tolerated dose in mice; conditions: nu/nu, mouse, in vivo, oral
HCT116 cells [6] = experiment: ATP measured in cellular lysates (ATP depletion) of HCT116 cells; format: cell-based; conditions: Homo sapiens, read-out: potency (IC50) for ATP depletion
Description: NAD in cells was measured by modification of existing protocols (Lee, H. I., et al. Exp. Mol. Med. 40, 246-253 (2008)). MCF-10A cells stably transduced with the PIK3CA(H1047R) oncogene were seeded in 96 well plates at very high density (100% confluence) and allowed to settle overnight. Test compound dissolved in DMSO was added and drug incubation proceeded for 20-24 hours. Cells were washed with PBS and harvested by incubation in 25 μL 0.5 M perchloric acid (HClO4) followed by vigorous shaking at 4° C. for 15 minutes. Acidic cell lysates were neutralized by adding 8 μL of 2 M KOH/0.2 M K2HPO4. The entire lysate volume was transferred to a centrifuge plate and spun at 3000 rpm in a table top centrifuge (4° C.) for 5 minutes to clear the precipitate. […] Reactions were allowed to proceed for 1 hour at room temperature, after which time fluorescence was read on a Gemini plate reader as described above.
For ATP measurement, 5 μL of cleared lysate was added to 195 μL PBS. 50 μL CellTiter-Glo reagent (Promega Corporation, Madison, Wis.) was added and ATP measured as described in the cytotoxicity assay methods.
Kinetics of NAD and ATP depletion in Naprt1-proficient HCT116 cells induced by Exemplary Compound A was studied using the assays described above. HCT116 cells were treated with 8.5 nM Exemplary Compound A and cellular NAD and ATP were measured at various times. […]

For `O=C(NCc1cccnc1)Nc1ccc(COc2ccccc2-c2ccccc2)cc1` [Exemplary Compound A, 1-{4-[(biphenyl-2-yloxy)methyl]phenyl}-3-(pyridin-3-ylmethyl)urea], which “maximal tumor response, regression” value (HCT116 xenograft tumors [1]; oral 10 mg/kg daily for 21 days, day 11) is on record?
The value was 32%.

What about the “maximal tumor response, regression” value (HCT116 xenograft tumors [1]; oral 75 mg/kg weekly for three cycles, day 18) of the same compound?
Its value is 10%.

What about the “tumor regression induced by single dose, in the presence of NA” value (HCT116 xenograft tumors [1]; oral once 75 mg/kg, NA by Alzet pump 470 mg/kg/day for three days) of the same compound?
Its value is “completely prevented”.

And the “depletion of NAD in tumor lysates” value (HCT116 xenograft tumors [2])?
Its value is 94%.

And the survival ([3]; 200 mg/kg with 400 mg/kg NA)?
Its survival is “significantly increased survival”.

And the “animals having tumor volumes >1500 mm3 at end of study” value ([3]; 200 mg/kg with 400 mg/kg NA)?
The value was “two”.

What about the “tumor growth inhibition (TGI) relative to vehicle” value ([3]; oral 75 mg/kg days 1, 10, 19, day 19) of the same compound?
The value was 53%.

What about the “tumor growth inhibition (TGI)” value ([3]; oral 200 mg/kg with 400 mg/kg NA days 1, 10, 19, day 19) of the same compound?
The value was 88%.

What about the “animals having tumor volumes >1500 mm3 at end of study” value ([3]; other cohorts (incl. 75 mg/kg)) of the same compound?
Its value is “eight”.

And the IC50 (HCT116 cells [4]; absence of 10 μM NA)?
The IC50 was 0.26 nM.

And the IC50 (HCT116 cells [4]; presence of 10 μM NA)?
Its IC50 is greater than 10000 nM.

And the MTD [5]?
The MTD was 75 mg/kg.

What about the IC50 (HCT116 cells [6]; HCT-116, 0.5 h, exposure 30 min) of the same compound?
Its IC50 is 33 nM.

What about the IC50 (HCT116 cells [6]; HCT-116, after 48 h exposure) of the same compound?
Its IC50 is roughly 0.6 nM.
